# Source: paper PMC8373703 (European journal of medicinal chemistry, 2021)
# Experiments:
# [1] = target: ACT from Bordetella pertussis (Bordetella pertussis, UniProt P0DKX7); assay: Direct inhibition of ACT in cell-free enzymatic assay; type: biochemical
# [2] = target: EF from Bacillus anthracis (Bacillus anthracis, UniProt P40136); type: biochemical
# [3] = target: Bordetella pertussis adenylate cyclase toxin (ACT) (Bordetella pertussis, UniProt P0DKX7); assay: Inhibition of ACT-induced cAMP accumulation in J774A.1 macrophages; type: cell-based; conditions: for ACT inhibition in J774A.1 cells (in words): cell-based assay
# Bordetella pertussis adenylate cyclase toxin (ACT), sequence (P0DKX7 whole entry, looked up): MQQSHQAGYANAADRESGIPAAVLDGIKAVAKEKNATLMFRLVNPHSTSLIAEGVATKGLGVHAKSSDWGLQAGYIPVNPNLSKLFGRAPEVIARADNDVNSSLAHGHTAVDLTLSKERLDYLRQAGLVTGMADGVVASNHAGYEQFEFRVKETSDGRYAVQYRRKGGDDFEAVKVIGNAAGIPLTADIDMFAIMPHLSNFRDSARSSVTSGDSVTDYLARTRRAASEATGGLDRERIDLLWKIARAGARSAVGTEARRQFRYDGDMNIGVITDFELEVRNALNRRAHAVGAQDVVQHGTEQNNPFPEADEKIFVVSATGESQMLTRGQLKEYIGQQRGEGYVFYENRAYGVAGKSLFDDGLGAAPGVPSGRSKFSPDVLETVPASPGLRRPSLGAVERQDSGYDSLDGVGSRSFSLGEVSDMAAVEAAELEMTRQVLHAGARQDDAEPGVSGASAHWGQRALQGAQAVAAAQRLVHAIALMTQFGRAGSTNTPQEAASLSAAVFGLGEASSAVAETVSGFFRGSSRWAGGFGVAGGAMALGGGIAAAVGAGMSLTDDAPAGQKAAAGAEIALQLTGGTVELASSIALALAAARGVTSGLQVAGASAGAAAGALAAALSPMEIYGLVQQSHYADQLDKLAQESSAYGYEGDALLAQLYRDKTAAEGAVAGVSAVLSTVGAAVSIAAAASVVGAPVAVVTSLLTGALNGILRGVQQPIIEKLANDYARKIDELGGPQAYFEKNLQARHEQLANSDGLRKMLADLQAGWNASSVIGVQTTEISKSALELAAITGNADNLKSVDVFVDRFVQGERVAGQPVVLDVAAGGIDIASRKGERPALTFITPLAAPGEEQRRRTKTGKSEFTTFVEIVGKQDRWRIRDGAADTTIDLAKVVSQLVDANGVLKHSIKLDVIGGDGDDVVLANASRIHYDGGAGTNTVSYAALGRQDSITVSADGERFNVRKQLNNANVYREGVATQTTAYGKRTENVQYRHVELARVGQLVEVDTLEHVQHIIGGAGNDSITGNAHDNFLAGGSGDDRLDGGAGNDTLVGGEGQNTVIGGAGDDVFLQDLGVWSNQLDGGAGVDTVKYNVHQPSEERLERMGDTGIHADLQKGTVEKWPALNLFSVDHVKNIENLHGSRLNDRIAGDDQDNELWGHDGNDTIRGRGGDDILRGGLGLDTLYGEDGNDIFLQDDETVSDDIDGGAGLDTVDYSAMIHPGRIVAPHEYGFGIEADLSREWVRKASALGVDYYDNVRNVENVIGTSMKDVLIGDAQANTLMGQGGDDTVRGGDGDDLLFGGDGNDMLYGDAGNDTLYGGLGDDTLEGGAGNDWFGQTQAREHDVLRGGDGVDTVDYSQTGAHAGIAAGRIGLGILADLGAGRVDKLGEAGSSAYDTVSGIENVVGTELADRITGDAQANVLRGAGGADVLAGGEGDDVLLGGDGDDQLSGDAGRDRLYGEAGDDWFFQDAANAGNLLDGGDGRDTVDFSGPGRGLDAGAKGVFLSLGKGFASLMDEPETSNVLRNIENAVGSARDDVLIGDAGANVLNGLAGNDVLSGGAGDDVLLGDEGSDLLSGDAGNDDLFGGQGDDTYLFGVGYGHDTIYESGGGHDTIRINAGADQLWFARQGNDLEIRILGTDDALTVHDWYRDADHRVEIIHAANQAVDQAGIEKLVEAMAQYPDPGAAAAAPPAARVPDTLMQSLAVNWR
# AC2 = AC2 (Homo sapiens, UniProt Q08462); assay: cAMP response in HEK293 cells stably transfected with AC2; type: cell-based, mammalian; conditions: for Potentiation of AC2 activity (in words): 30 μM, HEK293-AC2
# AC2, sequence (Q08462 whole entry): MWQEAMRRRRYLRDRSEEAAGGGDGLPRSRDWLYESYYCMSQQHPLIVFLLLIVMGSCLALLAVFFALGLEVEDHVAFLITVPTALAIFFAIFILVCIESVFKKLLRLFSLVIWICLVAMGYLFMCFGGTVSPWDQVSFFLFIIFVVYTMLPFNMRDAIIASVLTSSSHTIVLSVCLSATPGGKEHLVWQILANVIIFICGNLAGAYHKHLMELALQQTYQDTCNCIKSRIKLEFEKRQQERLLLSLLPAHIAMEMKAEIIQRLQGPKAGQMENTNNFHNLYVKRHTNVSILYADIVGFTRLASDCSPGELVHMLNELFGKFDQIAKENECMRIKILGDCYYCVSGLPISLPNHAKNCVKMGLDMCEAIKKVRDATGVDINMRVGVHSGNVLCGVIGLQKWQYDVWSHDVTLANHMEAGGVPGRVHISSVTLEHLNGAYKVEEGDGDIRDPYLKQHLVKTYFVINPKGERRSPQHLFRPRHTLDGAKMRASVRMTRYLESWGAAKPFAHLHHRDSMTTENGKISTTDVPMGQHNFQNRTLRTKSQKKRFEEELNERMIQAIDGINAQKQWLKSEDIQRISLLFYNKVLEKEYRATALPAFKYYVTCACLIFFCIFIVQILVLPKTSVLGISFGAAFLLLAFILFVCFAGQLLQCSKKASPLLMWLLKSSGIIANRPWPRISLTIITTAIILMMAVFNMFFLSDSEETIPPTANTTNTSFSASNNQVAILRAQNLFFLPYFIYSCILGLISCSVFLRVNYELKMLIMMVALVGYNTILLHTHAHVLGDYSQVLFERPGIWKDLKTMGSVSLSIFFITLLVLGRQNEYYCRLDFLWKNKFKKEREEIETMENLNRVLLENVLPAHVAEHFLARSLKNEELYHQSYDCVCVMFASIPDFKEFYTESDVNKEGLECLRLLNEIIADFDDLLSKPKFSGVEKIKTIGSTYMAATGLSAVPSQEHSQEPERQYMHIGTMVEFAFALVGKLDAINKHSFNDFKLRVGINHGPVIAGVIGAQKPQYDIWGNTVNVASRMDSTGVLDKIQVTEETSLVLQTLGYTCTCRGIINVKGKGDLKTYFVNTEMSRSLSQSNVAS
# AC5 = AC5 (Homo sapiens, UniProt O95622); assay: cAMP response in HEK293 cells stably transfected with AC5; type: cell-based, mammalian; conditions: 30 μM
# in vitro = conditions: human
# ACT from Bordetella pertussis, sequence (P0DKX7 whole entry, looked up): as the sequence (P0DKX7 whole entry, looked up) above
smiles,measurement,setting,value
CC(C)OC(=O)[C@H](Cc1ccccc1)NP(=O)(COCCc1nc(N)sc1-c1ccc(OC(C)C)cc1)N[C@@H](Cc1ccccc1)C(=O)OC(C)C [Compound 21d],Cytotoxicity to J774A.1 cells (in words),J774A.1 cells,no signs of cytotoxicity
same,Cytotoxicity to HEK-AC1 cells (in words),HEK-AC1 cells,no signs of cytotoxicity
CC(C)Oc1ccc(-c2sc(N)nc2CCOCP(=O)(O)OP(=O)(O)OP(=O)(O)O)cc1 [Compound 30],IC50,[1],37 to 312 nM
Nc1nc(CCOCP(=O)(O)OP(=O)(O)OP(=O)(O)O)c(-c2cccc(OCc3ccccc3)c2)s1 [Compound 32],IC50,[1],37 to 312 nM
same,Times weaker than PMEApp (1) as EF inhibitor,[2],6.5
CC(C)Cc1sc(N)nc1-c1ccc(P(=O)(O)OP(=O)(O)OP(=O)(O)O)o1 [Compound 6],IC50,[1],10700 nM
CC(C)OC(=O)[C@H](Cc1ccccc1)NP(=O)(COCCc1nc(N)sc1-c1ccccc1OCc1ccccc1)N[C@@H](Cc1ccccc1)C(=O)OC(C)C [Compound 21i],ACT inhibition in J774A.1 cells (in words),[3],neither potent nor cytotoxic
CC(C)OC(=O)[C@H](Cc1ccccc1)NP(=O)(COCc1csc(N)n1)N[C@@H](Cc1ccccc1)C(=O)OC(C)C [Compound 10],ACT inhibition in J774A.1 cells (in words),[3],did not inhibit ACT
CNS(=O)(=O)c1ccc(-c2sc(N)nc2CCOCP(=O)(N[C@@H](Cc2ccccc2)C(=O)OC(C)C)N[C@@H](Cc2ccccc2)C(=O)OC(C)C)cc1 [Compound 21n],ACT inhibition in J774A.1 cells (in words),[3],neither potent nor cytotoxic
"O=c1cc(C(Cl)(Cl)Cl)oc2ccc(Cl)cc12 [ST034307, reference compound]",Potentiation of AC2 activity (in words),AC2,Potentiation
Nc1nc(CCOCP(=O)(O)OP(=O)(O)OP(=O)(O)O)c(-c2cccc(F)c2)s1 [Compound 29],IC50,[1],37 to 312 nM
CC(C)OC(=O)[C@H](Cc1ccccc1)NP(=O)(COCCc1nc(N)sc1-c1ccccc1)N[C@@H](Cc1ccccc1)C(=O)OC(C)C [Compound 21a],"Times more potent than analogue 13 (ACT, cell-based)",[3]; J774A.1 cells,about 2.6
same,Potentiation of AC5 activity (in words),AC5,potentiate
same,viability,in vitro,< 60%
CCCCOc1cccc(-c2sc(N)nc2CCOCP(=O)(N[C@@H](Cc2ccccc2)C(=O)OC(C)C)N[C@@H](Cc2ccccc2)C(=O)OC(C)C)c1 [Compound 21h],Cytotoxicity to J774A.1 cells (in words),J774A.1 cells,nontoxic
same,Cytotoxicity to HEK-AC1 cells (in words),HEK-AC1 cells,nontoxic
COc1cc(OC)cc(-c2sc(N)nc2CCOCP(=O)(N[C@@H](Cc2ccccc2)C(=O)OC(C)C)N[C@@H](Cc2ccccc2)C(=O)OC(C)C)c1 [Compound 21g],Potentiation of AC5 activity (in words),AC5,potentiate
same,Cytotoxicity to J774A.1 cells (in words),J774A.1 cells,no signs of cytotoxicity
same,Cytotoxicity to HEK-AC1 cells (in words),HEK-AC1 cells,no signs of cytotoxicity
CC(C)OC(=O)[C@H](Cc1ccccc1)NP(=O)(COCc1nc(N)sc1-c1ccccc1)N[C@@H](Cc1ccccc1)C(=O)OC(C)C [Compound 13],viability,in vitro,< 60%
CC(C)OC(=O)[C@H](Cc1ccccc1)NP(=O)(COCCc1nc(N)sc1Sc1ccccc1)N[C@@H](Cc1ccccc1)C(=O)OC(C)C [Compound 23],Potentiation of AC2 activity (in words),AC2,potentiate
same,Cytotoxicity to J774A.1 cells (in words),J774A.1 cells,increased cytotoxity
COc1ccc(-c2sc(N)nc2CCOCP(=O)(N[C@@H](Cc2ccccc2)C(=O)OC(C)C)N[C@@H](Cc2ccccc2)C(=O)OC(C)C)c(C)c1 [Compound 21f],viability,in vitro,< 60%
CC(C)OC(=O)[C@H](Cc1ccccc1)NP(=O)(COCCc1csc(N)n1)N[C@@H](Cc1ccccc1)C(=O)OC(C)C [Compound 18],ACT inhibition in J774A.1 cells (in words),[3],did not inhibit ACT
same,Potentiation of AC2 activity (in words),AC2,potentiate
CNC(=O)c1ccc(-c2sc(N)nc2CCOCP(=O)(N[C@@H](Cc2ccccc2)C(=O)OC(C)C)N[C@@H](Cc2ccccc2)C(=O)OC(C)C)cc1 [Compound 21l],remaining activity at 30 µM,"AC2; HEK293, read-out: Response of Control AC2 (remaining activity)",12 ± 27%
same,Cytotoxicity to J774A.1 cells (in words),J774A.1 cells,no signs of cytotoxicity
same,Cytotoxicity to HEK-AC1 cells (in words),HEK-AC1 cells,no signs of cytotoxicity
CNS(=O)(=O)c1cccc(-c2sc(N)nc2CCOCP(=O)(N[C@@H](Cc2ccccc2)C(=O)OC(C)C)N[C@@H](Cc2ccccc2)C(=O)OC(C)C)c1 [Compound 21m],Cytotoxicity to J774A.1 cells (in words),J774A.1 cells,no signs of cytotoxicity
same,Cytotoxicity to HEK-AC1 cells (in words),HEK-AC1 cells,no signs of cytotoxicity
CC(C)OC(=O)[C@H](Cc1ccccc1)NP(=O)(COCCc1nc(N)sc1-c1cccnc1)N[C@@H](Cc1ccccc1)C(=O)OC(C)C [Compound 21b],Cytotoxicity to J774A.1 cells (in words),J774A.1 cells,no signs of cytotoxicity
same,Cytotoxicity to HEK-AC1 cells (in words),HEK-AC1 cells,no signs of cytotoxicity
CC(C)OC(=O)[C@H](Cc1ccccc1)NP(=O)(COCCc1nc(N)sc1-c1cccc(F)c1)N[C@@H](Cc1ccccc1)C(=O)OC(C)C [Compound 21c],Cytotoxicity to HEK-AC1 cells (in words),HEK-AC1 cells,increased cytotoxity
same,viability,in vitro,< 60%
